Experimental data published in patent US10369134B2, “Nonracemic mixtures and uses thereof” (Sunovion Pharmaceuticals Inc., priority 2017, dated 2019).

System: freely moving rats
Test: Sleep study of 85:15 (R:S-amisulpride) and racemic amisulpride (EEG/EMG)
Type: in vivo
Details: rat, p.o., R-amisulpride content of the total dose
Procedure: Groups in this study were as follows. Test compound was administered to rats in a cross-over design.
Vehicle or fixed ratio amisulpride dosing solutions were orally administered 10 min before the beginning of light phase (light phase: 10:00 AM to 10:00 PM). The individual dosing volume was 4 mL/kg. The individual dosing volume was calculated based on the animals' body weight measured on each experimental day. At least 1-week wash-out period after each treatment was provided.
The R-amisulpride and S-amisulpride were separately weighed. […]
A radio transmitter was implanted intraperitoneally in each anesthetized animal (sodium pentobarbital, 32.4 mg/kg, i.p. and medetomidine hydrochloride, 0.5 mg/kg, i.p.). […] Electromyograms (EMG) were recorded from the dorsal neck muscle. […] EEG/EMG was recorded in the home cages in a soundproof box using Dataquest A.R.T. software (Data Science International, New Brighton, Minn., USA) at a sampling rate of 500 Hz. […]
All data were expressed as a mean±SEM. Difference between 85/15 and 50/50 amisulpride at each dose in each sleep architecture (i.e. REM sleep duration, NREM sleep duration, and WAKE duration) during the first 4 hours after administration were assessed by a repeated measures one-way ANOVA, followed by post-hoc Bonferroni multiple comparison test. […]

CCN1CCC[C@@H]1CNC(=O)c1cc(S(=O)(=O)CC)c(N)cc1OC [(R)-amisulpride, R-4-Amino-N-[(1-ethyl-2-pyrrolidinyl)methyl]-5-(ethylsulfonyl)-2-methoxybenzamide]
dose of R-amisulpride at which REM sleep suppression was saturated: ≥ 50 mg/kg
